This is an account of results in patent US8501992B2, “Hydroxyphenyl sulfonamides as antiapoptotic bcl inhibitors” (Bristol-Myers Squibb Company, priority 2008, dated 2013).

Assay type in all cases: binding
The target of one assay is T1, Bcl-b (Homo sapiens, UniProt Q9HD36).
T1 construct: without their C-terminal transmembrane domain; GST; made in house
T1 sequence (Q9HD36 1-182 limits assumed): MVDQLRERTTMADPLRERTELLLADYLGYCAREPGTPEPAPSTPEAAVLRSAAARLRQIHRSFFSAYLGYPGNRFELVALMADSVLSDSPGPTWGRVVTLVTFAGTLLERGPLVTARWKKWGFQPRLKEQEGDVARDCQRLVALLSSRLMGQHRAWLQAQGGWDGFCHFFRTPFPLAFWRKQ
The experiment in a line: Bclb/Bim fluorescence polarization assay (FPA). Particulars: BIM BH3 peptide 5 nM, Bcl-b 40 nM, Ki calculated from FPA data. From the text: (§1) Compounds were profiled for their ability to disrupt in vitro binding interactions in fluorescence polarization assays (FPAs) using synthetic fluorochrome-labeled Bcl homology 3 (BH3) peptides derived from BIM [(FAM)-Ahx-[…]-NH2 (SEQ ID NO: 1) (GenBank Accession No. O43521)] or BAK [Ac-GQVGRQLAIIGE-LYS(FAM)-INR-NH2 (SEQ ID NO:2) (GenBank Accession No. Q16611) amino acid sequences and four bacterial recombinant proteins [Bcl-b (GenBank Accession No. Q9HD36), Bcl-2 (GenBank Accession No. P10415), Bcl-Xl (GenBank Accession No. Q07817), Mcl-1 (GenBank Accession No. Q07820)] without their C-terminal transmembrane domain. Proteins were purified from bacterial lysates using their glutathione S-transferase (GST)-tag (Bcl-b, Bcl-2, Mcl-1) or His6-tag (Bcl-Xl) and following one-step affinity chromatography procedures. Dissociation constants (Kd) for peptide binding protein were determined by fluorescence polarization in FPAs measuring BIM BH3 peptide binding Bcl-b, Mcl-1 or Bcl-2 protein or BAK BH3 peptide binding Bcl-Xl protein. The Kd values were generated by fitting the experimental data using a sigmoidal dose-response nonlinear regression model.
(§2) Compound inhibitory concentration values, IC50 (50% reduction in fluorescence polarization), were determined using fluorochrome-labeled BH3 peptides and recombinant Bcl proteins in fluorescence polarization assays (FPAs). Compounds diluted in DMSO (0.5 ul) were transferred (in duplicate) to individual wells of a 384-well plate. The fluorochrome-labeled peptide was added followed by recombinant protein addition. Each binding FPA reaction (50 ul) contained BIM BH3 peptide (5 nM) or BAK BH3 peptide (1.5 nM) and Bcl-b (40 nM), Mcl-1 (28 nM), Bcl-2 (11 nM) or Bcl-Xl. (5 nM) protein suspended in assay buffer [20 mM sodium phosphate, pH 7.4, 1 mM EDTA, 50 mM NaCl., 0.05% Pluronic F68]. Reaction mixtures were incubated at ambient temperature for 60 minutes prior to measuring polarization (mP) using an Analyst (LJL, Molecular Devices, Sunnyvale, Calif.) programmed to detect an emission wavelength of 530 nm after excitation (excitation wavelength=485 nm).
(§3) Competitive compound inhibition constants (Ki) were calculated using FPA experimental data and a mathematical equation, Ki=[I]50/([L]50/Kd+[P]0/Kd+1), where [I]50 denotes free inhibitor concentration at 50% inhibition, [L]50 is free labeled ligand concentration at 50% inhibition, [P]0 is free protein concentration at 0% inhibition, and Kd is the dissociation constant of the protein-ligand complex.

For a further assay, the target named is T2, Mcl-1 (Homo sapiens, UniProt Q07820).
T2 construct: without their C-terminal transmembrane domain; GST; made in house
T2 sequence (Q07820 1-327 limits assumed): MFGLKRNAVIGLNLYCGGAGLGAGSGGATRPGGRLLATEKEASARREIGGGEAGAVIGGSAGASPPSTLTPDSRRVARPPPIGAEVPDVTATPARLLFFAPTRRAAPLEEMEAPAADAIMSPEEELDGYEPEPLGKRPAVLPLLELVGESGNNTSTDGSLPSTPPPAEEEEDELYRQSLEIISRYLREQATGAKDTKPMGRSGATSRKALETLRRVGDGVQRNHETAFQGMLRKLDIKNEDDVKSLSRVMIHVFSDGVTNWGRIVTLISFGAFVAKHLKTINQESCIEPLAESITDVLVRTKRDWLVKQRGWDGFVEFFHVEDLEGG
Nature of the assay: Mcl-1/Bim fluorescence polarization assay (FPA). As to conditions: BIM BH3 peptide 5 nM, Mcl-1 28 nM, Ki calculated from FPA data.
Excerpt: as §1, §2, §3

A further assay addresses T3, Bcl-2 (Homo sapiens, UniProt P10415).
T3 construct: without their C-terminal transmembrane domain; GST; made in house
Nature of the assay: Bcl2/Bim fluorescence polarization assay (FPA). Particulars: BIM BH3 peptide 5 nM, Bcl-2 11 nM, Ki calculated from FPA data.
Excerpt: as §1, §2, §3

Broadly, the Ki is the dissociation constant of the complex between target and ligand, obtained from inhibition or displacement.

T3 sequence (P10415 1-211 limits assumed): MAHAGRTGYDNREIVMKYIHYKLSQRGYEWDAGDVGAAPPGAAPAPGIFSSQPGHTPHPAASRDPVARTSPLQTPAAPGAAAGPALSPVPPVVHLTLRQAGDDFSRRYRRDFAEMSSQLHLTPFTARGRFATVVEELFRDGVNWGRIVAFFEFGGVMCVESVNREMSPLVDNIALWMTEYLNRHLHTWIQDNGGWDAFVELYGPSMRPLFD

On to `O=C(c1cccc(CN(Cc2ccc(F)cc2)S(=O)(=O)c2cc(Cl)cc(Cl)c2O)c1)N(Cc1ccc(F)cc1)Cc1cc(Cl)cc(Cl)c1` [Example 95, 3-((3,5-Dichloro-N-(4-fluorobenzyl)-2-hydroxyphenylsulfonamido)methyl)-N-(3,5-dichlorobenzyl)-N-(4-fluorobenzyl)benzamide], for which the Ki at Bcl-b was 60 nM; on Mcl-1 it was 70 nM; at Bcl-2, 120 nM.
For `O=S(=O)(c1cc(Cl)cc(Cl)c1O)N(Cc1ccc(F)cc1)Cc1ccc(CN(Cc2ccc(F)cc2)S(=O)(=O)c2cc(Cl)cc(Cl)c2O)cc1` [Example 96, N-(4-Fluoro-benzyl)-N-(4-{[(4-fluoro-benzyl)-(3,5-dichloro-2-hydroxybenzene)sulfonyl-amino]-methyl}-benzyl)-3,5-dichloro-2-hydroxybenzenesulfonamide], in that order: 60 nM, 10 nM and 110 nM.
With `CC(C)CN(Cc1ccc(CN(CC(C)C)S(=O)(=O)c2cc(Cl)cc(Cl)c2O)cc1)S(=O)(=O)c1cc(Cl)cc(Cl)c1O` [Example 97, N-Isobutyl-N-{4-[(isobutyl-(3,5-dichloro-2-hydroxybenzene)sulfonyl-amino)-methyl]-benzyl}-(3,5-dichloro-2-hydroxybenzene)sulfonamide], the Ki at Bcl-b is 70 nM; on Mcl-1 it was 100 nM; on Bcl-2 it was 110 nM.
For `O=S(=O)(NCc1ccc(CN(Cc2ccc(F)cc2)S(=O)(=O)c2cc(Cl)cc(Cl)c2O)cc1)c1cc(Cl)cc(Cl)c1` [Example 98, 3,5-Dichloro-N-(4-((3,5-dichlorophenylsulfonamido)methyl)benzyl)-N-(4-fluorobenzyl)-2-hydroxybenzenesulfonamide], in that order: 160 nM, 280 nM and 230 nM.
For `O=C(c1ccc(CN(Cc2ccc(F)cc2)S(=O)(=O)c2cc(Cl)cc(Cl)c2O)cc1)N(Cc1ccc(F)cc1)Cc1cc(Cl)cc(Cl)c1` [Example 106, 4-((3,5-Dichloro-N-(4-fluorobenzyl)-2-hydroxyphenylsulfonamido)methyl)-N-(3,5-dichlorobenzyl)-N-(4-fluorobenzyl)benzamide], in that order: 40 nM, 40 nM and 40 nM.
For `CC(C)N(Cc1ccccc1)C(=O)c1ccc(CN(Cc2ccc(F)cc2)S(=O)(=O)c2cc(Cl)cc(Cl)c2O)cc1` [Example 107, N-Benzyl-4-((3,5-dichloro-N-(4-fluorobenzyl)-2-hydroxyphenylsulfonamido)methyl)-N-isopropylbenzamide], in that order: 210 nM, 520 nM and 480 nM.
Regarding `O=C(c1ccc(CN(Cc2ccc(F)cc2)S(=O)(=O)c2cc(Cl)cc(Cl)c2O)cc1)N1CCCCC1` [Example 130], the Ki was 440 nM at Bcl-b, 2060 nM at Mcl-1 and 840 nM at Bcl-2.
For `CC(C)CCNC(=O)c1ccc(CN(Cc2ccc(F)cc2)S(=O)(=O)c2cc(Cl)cc(Cl)c2O)cc1` [Example 135, 4-((3,5-Dichloro-N-(4-fluorobenzyl)-2-hydroxyphenylsulfonamido)methyl)-N-isopentylbenzamide], in that order: 280 nM, 490 nM and 610 nM.
For `CN(CCc1ccccc1)C(=O)c1ccc(CN(Cc2ccc(F)cc2)S(=O)(=O)c2cc(Cl)cc(Cl)c2O)cc1` [Example 137, 4-((3,5-Dichloro-N-(4-fluorobenzyl)-2-hydroxyphenylsulfonamido)methyl)-N-methyl-N-phenethylbenzamide], the Ki is 220 nM on Bcl-b, 480 nM on Mcl-1 and 250 nM on Bcl-2.
For `CCCCNC(=O)c1ccc(CN(Cc2ccc(F)cc2)S(=O)(=O)c2cc(Cl)cc(Cl)c2O)cc1` [Example 138, N-Butyl-4-((3,5-dichloro-N-(4-fluorobenzyl)-2-hydroxyphenylsulfonamido)methyl)-benzamide], in that order: 450 nM, 1760 nM and 820 nM.
Take `O=C(c1ccc(CN(Cc2ccc(F)cc2)S(=O)(=O)c2cc(Cl)cc(Cl)c2O)cc1)N1CCN(c2cnccn2)CC1` [Example 140, 3,5-Dichloro-N-(4-fluorobenzyl)-2-hydroxy-N-(4-(4-(pyrazin-2-yl)piperazine-1-carbonyl)benzyl)benzenesulfonamide]: the figures for the Ki on Bcl-b, at Mcl-1 and on Bcl-2 were 500 nM, 1730 nM and 660 nM, respectively.
With `O=C(N[C@H]1C[C@@H]1c1ccccc1)c1ccc(CN(Cc2ccc(F)cc2)S(=O)(=O)c2cc(Cl)cc(Cl)c2O)cc1` [Example 143, 4-((3,5-Dichloro-N-(4-fluorobenzyl)-2-hydroxyphenylsulfonamido)methyl)-N-((1S,2R)-2-phenylcyclopropyl)benzamide], the figures for the Ki at Bcl-b, on Mcl-1 and at Bcl-2 were 170 nM, 450 nM and 370 nM, respectively.
Take `NS(=O)(=O)c1ccc(CNC(=O)c2ccc(CN(Cc3ccc(F)cc3)S(=O)(=O)c3cc(Cl)cc(Cl)c3O)cc2)cc1` [Example 147, 4-((3,5-Dichloro-N-(4-fluorobenzyl)-2-hydroxyphenylsulfonamido)methyl)-N-(4-sulfamoylbenzyl)benzamide]: the Ki at Bcl-b is 450 nM; at Mcl-1, 1730 nM; on Bcl-2, 960 nM.
For `CN(C)c1ccc(CNC(=O)c2ccc(CN(Cc3ccc(F)cc3)S(=O)(=O)c3cc(Cl)cc(Cl)c3O)cc2)cc1` [Example 150, 4-((3,5-Dichloro-N-(4-fluorobenzyl)-2-hydroxyphenylsulfonamido)methyl)-N-(4-(dimethylamino)benzyl)benzamide], in that order: 200 nM, 460 nM and 440 nM.
For `O=C(c1ccc(N(Cc2ccc(F)cc2)S(=O)(=O)c2cc(Cl)cc(Cl)c2O)cc1)N(Cc1ccc(F)cc1)Cc1cc(Cl)cc(Cl)c1` [Example 175, 4-(3,5-Dichloro-N-(4-fluorobenzyl)-2-hydroxyphenylsulfonamido)-N-(3,5-dichlorobenzyl)-N-(4-fluorobenzyl)benzamide], in that order: 60 nM, 30 nM and 40 nM.
As to `O=S(=O)(c1cc(Cl)cc(Cl)c1)N(CCO)Cc1ccc(CN(Cc2ccc(F)cc2)S(=O)(=O)c2cc(Cl)cc(Cl)c2O)cc1` [Example 176], the Ki on Bcl-b was 180 nM; at Mcl-1 it was 480 nM; on Bcl-2 it was 440 nM.
For `CC(C)CN(Cc1cccc(CN(Cc2ccc(-c3ccc(F)cc3)cc2)S(=O)(=O)c2cc(Cl)cc(Cl)c2O)c1)C(=O)c1ccc2[nH]c(=O)c(=O)[nH]c2c1` [Example 190, N-(3-((3,5-Dichloro-N-((4′-fluorobiphenyl-4-yl)methyl)-2-hydroxyphenylsulfonamido)methyl)-benzyl)-N-isobutyl-2,3-dioxo-1,2,3,4-tetrahydroquinoxaline-6-carboxamide], in that order: 150 nM, 550 nM and 180 nM.
For `CC(C)CN(Cc1cccc(CN(Cc2ccc(-c3ccc(F)cc3)cc2)S(=O)(=O)c2cc(Cl)cc(Cl)c2O)c1)C(=O)c1nc2ccccc2s1` [Example 191, N-(3-((3,5-Dichloro-N-((4′-fluorobiphenyl-4-yl)methyl)-2-hydroxyphenylsulfonamido)methyl)-benzyl)-N-isobutylbenzo[d]thiazole-2-carboxamide], in that order: 180 nM, 530 nM and 110 nM.
For `CC(C)NC(=O)c1cc(Cl)c(O)c(S(=O)(=O)N(Cc2ccc(F)cc2)Cc2cccc(-c3ccc(Cl)cc3)c2)c1` [Example 211, 3-Chloro-5-(N-((4′-chlorobiphenyl-3-yl)methyl)-N-(4-fluorobenzyl)-sulfamoyl)-4-hydroxy-N-isopropylbenzamide], in that order: 160 nM, 530 nM and 480 nM.
